Results on two molecules are retold here after patent US20250290117A1, “MOLECULAR PHENOTYPIC ANTIMICROBIAL SUSCEPTIBILITY TESTING” (priority 2024, published 2025).

Test [1] concerns E. coli. Nature of the test: Molecular phenotypic antimicrobial susceptibility test, specimen with two detected pathogens incubated together without isolation. The following applies: E. coli in specimen with two detected pathogens (E. coli and M. morganii) incubated together; for Ct of Sensitive Breakpoint: Ct of controls (average) 15.93; for Molecular Antimicrobial Susceptibility Result: at sensitive breakpoint. It counts as cell-based, Escherichia coli. The protocol:
(§1) Detection of Molecular Phenotypic Antimicrobial Susceptibility. Disclosed herein are the methods for the detection of phenotypic antimicrobial susceptibility via molecular methods. The present invention describes how a specimen 100 with a known microbial load is incubated and then exposed to a panel of antimicrobial agents to determine sensitivity (prevention of growth) or resistance (allowance of growth) to the specific antimicrobial agents tested utilizing molecular methods.
Sample Collection. Specimens 100 are collected from patients using sterile collection processes that are employed in routine clinical care. Specimens are transported to the testing facility in boric acid preservative. Specimens 100 are subsequently divided into a first sample 104 and a second sample 108.
Preparation of the Specimens for Testing. The specimens 100 are put through a pathogen identification process using PCR technology (e.g., using the first sample 104). The process for pathogen isolation includes steps of harvesting the pathogen (e.g., via centrifugation), isolating pathogen DNA via a DNA isolation and/or purification kit, and performing PCR on the pathogen DNA via PCR components (e.g., primers, enzymes, buffers) as would be known to the skilled artisan. Simultaneously, an additional aliquot of the same specimen (e.g., the second sample 108) is placed with liquid culture media and incubated for 4-6 hours. This aliquot is used for antimicrobial susceptibility testing if indicated based on the pathogen detection results. After pathogen identification is completed and if more than 10,000 cells/mL of bacteria (e.g., eligible bacteria) are detected in the source specimen, the second sample 108 then enters the antimicrobial susceptibility phase of testing. Specimens 100 with lower pathogen loads could also be utilized in the antibiotic susceptibility phase of testing with or without a longer incubation period.
(§2) Preparation of Antimicrobial Susceptibility Testing Plates. Antimicrobial solutions are prepared at known concentrations. The specific antimicrobials and their concentrations are selected based on the pathogen of interest and the described antimicrobial resistance breakpoints for that specimen pathogen and antimicrobial combination. These antimicrobials have been selected based on those commonly utilized by healthcare providers in routine clinical care for the specific type of suspected infection. The number and types of antimicrobials utilized can be customized based on the infection source, pathogen detected, patient-specific factors such as allergies or other health conditions (e.g., chronic kidney disease or concurrent medication use), or healthcare provider preferences such as antimicrobial availability or cost.
The antimicrobial solutions are prepared in liquid culture media (such as Muller Hinton Broth) to achieve the desired antimicrobial concentration and are then stored at −80° C. until use. For a given specimen, each antimicrobial is tested at a single or multiple antimicrobial concentration(s) which is its established breakpoints for sensitivity. The antimicrobial solutions are prepared and plated out for each specific pathogen. This allows ease of use on the day of testing after defrosting the plate 112. Table 1, which illustrates the results of molecular phenotypic antimicrobial susceptibility testing when more than one organism is present in the source specimen, provides an example of an antimicrobial plate 112 prepared for this purpose. Of note, control wells containing only culture media are present on all plates 112. This allows for evaluation of pathogen load when no antimicrobial is present.
Specimen Exposure to Antimicrobial Agents. The 1 mL aliquot of the specimen 100 previously mixed with culture media and incubated is obtained. Using optical density measurements as a guide, the specimen 100 is diluted to 0.5 McFarland. […]

Test [2] has as its system pathogens of clinical samples. Nature of the test: Molecular phenotypic antimicrobial susceptibility test of clinical samples, extraction DNA purification step prior to PCR (Table 6). The class given is cell-based. The protocol:
as §1
Sample Collection. Specimens 100 are collected from patients using sterile collection processes that are employed in routine clinical care. Specimens are transported to the testing facility in boric acid preservative.
Preparation of the Specimens for Testing. […] The process for pathogen isolation includes steps of harvesting the pathogen (e.g., via centrifugation), isolating pathogen DNA via a DNA isolation and/or purification kit, and performing PCR on the pathogen DNA via PCR components (e.g., primers, enzymes, buffers) as would be known to the skilled artisan. […] This aliquot is used for antimicrobial susceptibility testing if indicated based on the pathogen detection results. […] Specimens 100 with lower pathogen loads could also be utilized in the antibiotic susceptibility phase of testing with or without a longer incubation period.
as §2
The antimicrobial solutions are prepared in liquid culture media (such as Muller Hinton Broth) to achieve the desired antimicrobial concentration and are then stored at −80° C. until use. For a given specimen, each antimicrobial is tested at a single or multiple antimicrobial concentration(s) which is its established breakpoints for sensitivity. The antimicrobial solutions are prepared and plated out for each specific pathogen. […] This allows for evaluation of pathogen load when no antimicrobial is present.
Specimen Exposure to Antimicrobial Agents. The 1 mL aliquot of the specimen 100 previously mixed with culture media and incubated is obtained. Using optical density measurements as a guide, the specimen 100 is diluted to 0.5 McFarland.
Antimicrobial exposure plates are typically placed into an incubator for 12-16 hours.
Nucleic Acid Amplification of Antimicrobial Agent Exposed Pathogens. The antimicrobial exposure plate is removed after the period of incubation. The specimen then undergoes a purification or lysis step. For example, the specimen may undergo a purification step (e.g., magnetic bead-based or other separation protocol to isolate genetic material). In another example, the specimen may undergo a cell lysis step. For example, buffer (e.g., lysis buffer) may be added and incubated in the thermal cycler for preparation for direct PCR. Next, the specimen may undergo a polymerase chain reaction (PCR) testing protocol, whereby a semi-quantitative PCR method is utilized. This may be completed either with or without a specific extraction protocol step. The pathogens can be individually targeted and detected, or a universal genetic sequence can be utilized to detect the antimicrobial susceptibility of the specimen as a whole.

Where [3] appears, read: E. coli, clinical sample of r10-r24.
Setting [4] is: E. coli, clinical sample of r158-r172.
Where [5] appears, read: K. aerogenes, clinical sample of r136-r150.
Where [6] appears, read: K. pneumoniae, clinical sample of r121-r135.
Setting [7] is: M. morganii, clinical sample of r55-r69.
Where [8] appears, read: M. morganii, clinical sample of r70-r84.
Where [9] appears, read: P. mirabilis, clinical sample of r25-r39.
Where [10] appears, read: P. mirabilis, clinical sample of r40-r54.

In the case of `CC1(C)S[C@@H]2[C@H](NC(=O)[C@H](N)c3ccccc3)C(=O)N2[C@H]1C(=O)O` [Ampicillin], in test [1], the “Ct of Sensitive Breakpoint” value came out at 15.14. Moreover, the “Molecular Antimicrobial Susceptibility Result” value in test [1] was “Resistant”. The “Molecular Antibiotic Susceptibility Result” value is “Resistant” in test [2] (setting [3]); “Sensitive (Antimicrobial wells with pathogen load detected below the control wells (typically >2 cycle thresholds later) may be reported as Sensitive)” in test [2] (setting [4]); “Sensitive (Antimicrobial wells with pathogen load detected below the control wells (typically >2 cycle thresholds later) may be reported as Sensitive)” in test [2] (E. faecalis, clinical sample of r93-r99); “sensitive” in test [2] (E. faecalis, clinical sample of r100-r106); “sensitive” in test [2] (E. faecalis, clinical sample of r107-r113); “Sensitive (Antimicrobial wells with pathogen load detected below the control wells (typically >2 cycle thresholds later) may be reported as Sensitive)” in test [2] (E. faecalis, clinical sample of r114-r120). Besides, the “Molecular Antibiotic Susceptibility Result” value is “Sensitive (Antimicrobial wells with pathogen load detected below the control wells (typically >2 cycle thresholds later) may be reported as Sensitive)” in test [2] (E. faecalis, clinical sample of r151-r157); “Resistant” in test [2] (setting [5]); “Resistant” in test [2] (setting [6]); “Resistant” in test [2] (setting [7]); “Resistant” in test [2] (setting [8]); “Sensitive (Antimicrobial wells with pathogen load detected below the control wells (typically >2 cycle thresholds later) may be reported as Sensitive)” in test [2] (setting [9]). Moreover, the “Molecular Antibiotic Susceptibility Result” value in test [2] (setting [10]) is “Sensitive (Antimicrobial wells with pathogen load detected below the control wells (typically >2 cycle thresholds later) may be reported as Sensitive)”. Moreover, the Ct in test [2] (E. coli, clinical sample of r158-r172, Ct Control Avg 20.146) is 29.961; in test [2] (E. faecalis, clinical sample of r93-r99, Ct Control Avg 22.987) it was 31.697; in test [2] (E. faecalis, clinical sample of r100-r106, Ct Control Avg 23.073), 37.6; in test [2] (E. faecalis, clinical sample of r107-r113, Ct Control Avg 22.144) it was 29.684; in test [2] (E. faecalis, clinical sample of r114-r120, Ct Control Avg 20.822), 33.01; in test [2] (E. faecalis, clinical sample of r151-r157, Ct Control Avg 20.56) it was “Undet”. Besides, the Ct in test [2] (K. aerogenes, clinical sample of r136-r150, Ct Control Avg 19.994) was 19.504; in test [2] (K. pneumoniae, clinical sample of r121-r135, Ct Control Avg 24.272) it was 21.189; in test [2] (M. morganii, clinical sample of r55-r69, Ct Control Avg 28.86), 25.767; in test [2] (M. morganii, clinical sample of r70-r84, Ct Control Avg 27.053), 25.947; in test [2] (P. mirabilis, clinical sample of r25-r39, Ct Control Avg 26.064) it was 34.177; in test [2] (P. mirabilis, clinical sample of r40-r54, Ct Control Avg 26.987), 35.741.
On to `Cc1nnc(SCC2=C(C(=O)O)N3C(=O)[C@@H](NC(=O)Cn4cnnn4)[C@H]3SC2)s1` [Cefazolin], for which the “Ct of Sensitive Breakpoint” value in test [1] was 15.46. The “Molecular Antimicrobial Susceptibility Result” value in test [1] is “Resistant”. The “Molecular Antibiotic Susceptibility Result” value in test [2] (setting [3]) is “Sensitive (Antimicrobial wells with pathogen load detected below the control wells (typically >2 cycle thresholds later) may be reported as Sensitive)”; in test [2] (setting [4]), “Sensitive (Antimicrobial wells with pathogen load detected below the control wells (typically >2 cycle thresholds later) may be reported as Sensitive)”; in test [2] (setting [5]) it was “Resistant”; in test [2] (setting [6]), “Sensitive (Antimicrobial wells with pathogen load detected below the control wells (typically >2 cycle thresholds later) may be reported as Sensitive)”; in test [2] (setting [7]), “Resistant”; in test [2] (setting [8]), “Resistant”. Moreover, the “Molecular Antibiotic Susceptibility Result” value is reported as “Resistant” in test [2] (setting [9]) and “Sensitive (Antimicrobial wells with pathogen load detected below the control wells (typically >2 cycle thresholds later) may be reported as Sensitive)” in test [2] (setting [10]).
